Blank lines part the entries; values can stand above or below the compound they belong to. Activity calls are given as the source filed them.
Key:
[1] = molecular target: Cyclin-dependent kinase 5/CDK5 activator 1 (Homo sapiens, UniProt Q00535); test: blockade of human CDK5 activity – biochemical, cherry-picked samples, set 2, dose response (AID 504545)
[2] = molecular target: Luciferin 4-monooxygenase (Photinus pyralis, UniProt P08659); test: inhibition of purified Photinus pyralis luciferase – biochemical, luminescence, dose response (AID 1891)
Chain of Luciferin 4-monooxygenase (P08659 whole entry): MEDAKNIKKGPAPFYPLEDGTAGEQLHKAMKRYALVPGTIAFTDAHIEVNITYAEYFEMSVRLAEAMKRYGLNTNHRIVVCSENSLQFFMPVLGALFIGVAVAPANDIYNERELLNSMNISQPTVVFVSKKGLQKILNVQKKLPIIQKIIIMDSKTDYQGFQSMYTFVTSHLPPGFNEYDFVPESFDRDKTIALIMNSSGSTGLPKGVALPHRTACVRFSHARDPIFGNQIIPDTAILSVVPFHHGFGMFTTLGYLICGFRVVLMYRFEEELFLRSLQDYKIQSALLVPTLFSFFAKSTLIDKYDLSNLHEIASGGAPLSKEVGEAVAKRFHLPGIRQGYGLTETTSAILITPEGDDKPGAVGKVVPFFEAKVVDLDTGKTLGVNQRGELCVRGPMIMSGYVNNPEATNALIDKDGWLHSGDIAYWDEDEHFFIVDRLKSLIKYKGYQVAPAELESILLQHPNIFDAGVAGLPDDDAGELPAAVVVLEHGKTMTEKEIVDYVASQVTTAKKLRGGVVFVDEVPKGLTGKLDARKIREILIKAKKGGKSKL

[3] = HEK-293T viability loss after treatment – luminescence, T-cell screen hits, cytotoxicity control for TCR NF-kB inhibitor project, dose response (AID 489026); assay type: functional, cell-based;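 further: cells exposed to compound about 14 hours before the viability readout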
[4] = general cell-killing toxicity readout – plate reader, dry powder samples, cytotoxicity control for PAX8 inhibitor project, dose response (AID 743021); assay type: functional, cell-based
[5] = ADP-Glo luciferase signal interference – biochemical, luminescence, cherry-picked samples, set 2, artefact control for CDK5 inhibitor project, dose response (AID 504546); assay type: functional, cell-based
[6] = Luminescence Cell-Based Dose Confirmation HTS to Identify Inhibitors of Platelet Dense Granule Release. [Related pubchem assays: 1663 (Primary HTS), 1678 (Summary of Project)]; assay type: functional
Paired box protein Pax-8 = Paired box protein Pax-8 (Homo sapiens, UniProt Q06710); test: PAX8 transcriptional activity inhibition in RMG-I – RMG-I cells, luciferase, cherry-pick, dose response (AID 687027); assay type: functional, cell-based;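 further: luciferase reporter driven by Pax8 target thyroperoxidase promoter measured by SteadyGlo luminescence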
Chain of Paired box protein Pax-8 (Q06710 whole entry): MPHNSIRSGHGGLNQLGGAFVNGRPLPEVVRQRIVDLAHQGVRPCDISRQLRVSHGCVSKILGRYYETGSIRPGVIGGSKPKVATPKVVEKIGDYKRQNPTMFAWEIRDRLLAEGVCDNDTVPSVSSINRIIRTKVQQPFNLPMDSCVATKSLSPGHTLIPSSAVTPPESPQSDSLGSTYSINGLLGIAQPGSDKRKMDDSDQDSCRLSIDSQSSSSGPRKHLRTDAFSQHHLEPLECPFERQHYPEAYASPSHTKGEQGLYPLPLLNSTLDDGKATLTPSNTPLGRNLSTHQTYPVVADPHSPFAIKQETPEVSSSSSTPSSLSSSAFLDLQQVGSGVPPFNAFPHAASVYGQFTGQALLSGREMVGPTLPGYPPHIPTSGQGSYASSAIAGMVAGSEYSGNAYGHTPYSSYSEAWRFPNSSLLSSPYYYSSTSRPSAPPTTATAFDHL

[7] = molecular target: T1, Heat shock factor protein 1 (Mus musculus, UniProt P38532); test: decrease of HSF1-responsive luciferase luminescence – cell-based, NIH3T3, dose retest, confirmation (AID 2382); assay type: functional;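 further: NIH3T3 fibroblasts with HSF1-driven luciferase reporter stressed by proteasome inhibitor MG132; luminescence from HSF1-driven luciferase expression after 8 hours of MG132 stress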
T1 sequence (P38532 whole entry): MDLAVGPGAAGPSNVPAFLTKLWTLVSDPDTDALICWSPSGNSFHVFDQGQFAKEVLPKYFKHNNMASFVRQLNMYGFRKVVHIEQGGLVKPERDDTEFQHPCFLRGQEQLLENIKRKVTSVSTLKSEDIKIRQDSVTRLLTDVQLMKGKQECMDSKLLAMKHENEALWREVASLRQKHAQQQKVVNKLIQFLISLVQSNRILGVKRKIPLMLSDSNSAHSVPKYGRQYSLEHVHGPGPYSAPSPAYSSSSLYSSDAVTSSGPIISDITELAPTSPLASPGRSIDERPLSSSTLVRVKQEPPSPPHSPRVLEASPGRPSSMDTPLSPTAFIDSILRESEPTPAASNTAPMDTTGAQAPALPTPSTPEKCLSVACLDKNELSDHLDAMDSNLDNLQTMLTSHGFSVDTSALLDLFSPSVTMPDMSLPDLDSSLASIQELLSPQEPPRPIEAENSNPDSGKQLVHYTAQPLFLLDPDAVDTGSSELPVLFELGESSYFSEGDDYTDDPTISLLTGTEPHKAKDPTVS

[8] = molecular target: Eukaryotic translation initiation factor 4H (Homo sapiens, UniProt Q15056); test: inhibitors of translation initiation factor eIF4H – SAR follow-up (AID 435011); assay type: functional
[9] = molecular target: Polyadenylate-binding protein 1 (Homo sapiens, UniProt P11940); test: PABP inhibition in translation initiation, SAR follow-up (AID 435018); assay type: functional
Chain of Polyadenylate-binding protein 1 (P11940 whole entry): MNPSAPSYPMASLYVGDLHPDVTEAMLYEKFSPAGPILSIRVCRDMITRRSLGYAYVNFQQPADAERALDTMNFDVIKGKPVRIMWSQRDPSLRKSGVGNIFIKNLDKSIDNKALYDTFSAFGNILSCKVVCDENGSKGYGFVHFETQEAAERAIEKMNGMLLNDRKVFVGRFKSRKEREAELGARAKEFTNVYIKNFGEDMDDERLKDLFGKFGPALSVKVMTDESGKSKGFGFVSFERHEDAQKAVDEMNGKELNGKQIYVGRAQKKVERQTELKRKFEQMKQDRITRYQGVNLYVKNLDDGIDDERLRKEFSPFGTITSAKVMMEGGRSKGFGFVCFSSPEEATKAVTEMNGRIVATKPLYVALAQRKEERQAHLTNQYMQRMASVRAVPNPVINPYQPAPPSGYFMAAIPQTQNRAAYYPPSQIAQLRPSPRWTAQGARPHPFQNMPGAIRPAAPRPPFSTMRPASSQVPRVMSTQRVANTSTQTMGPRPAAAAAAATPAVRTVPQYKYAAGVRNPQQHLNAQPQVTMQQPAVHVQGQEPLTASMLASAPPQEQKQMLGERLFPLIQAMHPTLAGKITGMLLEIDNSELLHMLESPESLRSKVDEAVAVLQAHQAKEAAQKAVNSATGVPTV

[10] = molecular target: Melanin-concentrating hormone receptor 1 (Homo sapiens, UniProt Q99705); test: Late-stage fluorescence-based counterscreen for antagonists of the G-protein coupled receptor 7 (GPR7): cell-based dose response assay to identify antagonists of the melanin-concentrating hormone receptor 1 (MCHR1). [Related pubchem assays (depositor defined):AID1861, AID1880, AID1952, AID2148, AID2251, AID2257, AID485339]; assay type: functional;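 further: stimulated with 30 nM MCH peptide agonist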
Chain of Melanin-concentrating hormone receptor 1 (Q99705 whole entry): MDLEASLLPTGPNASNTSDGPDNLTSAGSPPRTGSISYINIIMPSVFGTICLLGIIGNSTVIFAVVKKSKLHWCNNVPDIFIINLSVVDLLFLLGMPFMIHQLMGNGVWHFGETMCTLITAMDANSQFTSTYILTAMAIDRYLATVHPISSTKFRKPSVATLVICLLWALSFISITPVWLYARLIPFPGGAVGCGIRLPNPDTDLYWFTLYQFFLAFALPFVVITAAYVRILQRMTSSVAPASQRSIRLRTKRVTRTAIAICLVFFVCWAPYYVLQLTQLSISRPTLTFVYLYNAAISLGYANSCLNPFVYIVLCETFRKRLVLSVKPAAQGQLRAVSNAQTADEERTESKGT

[11] = molecular target: T2, Neuropeptides B/W receptor type 1 (Homo sapiens, UniProt P48145); test: human NPBW1 receptor blockade, IC50 – cell-based, fluorescence, dose response, late-stage follow-up (AID 463251); assay type: functional
T2 sequence (P48145 whole entry): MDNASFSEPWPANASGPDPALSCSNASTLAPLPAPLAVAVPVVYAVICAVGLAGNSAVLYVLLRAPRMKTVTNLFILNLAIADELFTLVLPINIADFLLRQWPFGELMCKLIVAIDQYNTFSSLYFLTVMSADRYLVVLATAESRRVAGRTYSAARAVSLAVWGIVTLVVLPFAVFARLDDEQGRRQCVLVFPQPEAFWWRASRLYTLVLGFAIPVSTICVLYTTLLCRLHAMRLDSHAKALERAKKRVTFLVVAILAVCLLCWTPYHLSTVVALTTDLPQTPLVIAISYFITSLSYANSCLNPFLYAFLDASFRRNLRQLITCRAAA

[12] = molecular target: Potassium voltage-gated channel subfamily KQT member 2 (Rattus norvegicus, UniProt O88943); test: potentiation of rat KCNQ2 current – cell-based, retigabine-insensitive compounds, dose response (AID 2654); assay type: functional
[13] = molecular target: Voltage-gated N-type calcium channel alpha-1B subunit/Amyloid beta A4 precursor protein-binding family A member 1 (Homo sapiens, UniProt Q00975+Q02410); test: disruptors of Mint-PDZ/N-type channel peptide interaction – biochemical, HTRF, set 2, SAR follow-up (AID 434980); assay type: functional
[14] = molecular target: G-protein coupled receptor 35 (Homo sapiens, UniProt Q9HC97); test: SAR analysis of Antagonists of the GPR35 Receptor using an Image-Based Assay - Set 5. [Related pubchem assays (depositor defined):AID2058, AID2079]; assay type: functional
Chain of G-protein coupled receptor 35 (Q9HC97 whole entry): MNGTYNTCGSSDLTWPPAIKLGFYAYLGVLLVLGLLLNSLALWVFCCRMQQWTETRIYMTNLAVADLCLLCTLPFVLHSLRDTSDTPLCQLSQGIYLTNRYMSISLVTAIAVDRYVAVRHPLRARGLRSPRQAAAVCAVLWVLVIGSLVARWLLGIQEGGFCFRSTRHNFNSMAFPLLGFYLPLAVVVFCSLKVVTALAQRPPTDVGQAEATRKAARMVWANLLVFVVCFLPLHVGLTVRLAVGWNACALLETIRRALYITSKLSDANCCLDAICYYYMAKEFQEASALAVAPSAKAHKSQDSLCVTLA

[15] = molecular target: G-protein coupled receptor 55 (Homo sapiens, UniProt Q9Y2T6); test: SAR Analysis of Selective Antagonists of GPR55 using an Image-Based Assay - Set 3. [Related pubchem assays (depositor defined):AID2058, AID2079]; assay type: functional
Chain of G-protein coupled receptor 55 (Q9Y2T6 whole entry): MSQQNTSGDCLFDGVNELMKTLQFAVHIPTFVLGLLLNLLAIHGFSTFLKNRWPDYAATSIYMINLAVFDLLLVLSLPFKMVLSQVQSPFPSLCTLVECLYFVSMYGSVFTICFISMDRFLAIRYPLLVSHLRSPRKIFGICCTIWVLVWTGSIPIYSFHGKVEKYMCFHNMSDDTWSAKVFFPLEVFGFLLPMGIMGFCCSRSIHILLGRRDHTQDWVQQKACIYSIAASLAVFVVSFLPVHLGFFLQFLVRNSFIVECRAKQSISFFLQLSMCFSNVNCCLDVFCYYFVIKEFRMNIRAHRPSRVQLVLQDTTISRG

[16] = molecular target: Protein phosphatase methylesterase 1 (Homo sapiens, UniProt Q9Y570); test: endogenous PME-1 and serine hydrolase inhibition – cell lysate, mouse brain cytosol, FP-rhodamine, gel ABPP, selectivity assay for PME-1 inhibitor project, dose response, panel member PME-1 Assay Panel member description: Inhibition of endogenously expressed PME-1 (AID 2366)
Chain of Protein phosphatase methylesterase 1 (Q9Y570 whole entry): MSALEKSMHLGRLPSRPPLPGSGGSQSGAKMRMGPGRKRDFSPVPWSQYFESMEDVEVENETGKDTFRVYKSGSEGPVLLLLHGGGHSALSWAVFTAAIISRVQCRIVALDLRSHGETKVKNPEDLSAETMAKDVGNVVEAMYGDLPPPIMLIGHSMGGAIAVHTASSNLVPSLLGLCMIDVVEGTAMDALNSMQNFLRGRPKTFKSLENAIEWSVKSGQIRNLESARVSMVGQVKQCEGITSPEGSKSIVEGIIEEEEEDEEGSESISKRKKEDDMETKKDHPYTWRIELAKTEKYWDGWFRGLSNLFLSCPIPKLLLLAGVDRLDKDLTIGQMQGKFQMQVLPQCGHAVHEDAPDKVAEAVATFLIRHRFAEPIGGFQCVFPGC

[17] = molecular target: T1, Heat shock factor protein 1; test: enhancement of HSF1-driven luciferase signal – cell-based, NIH3T3, luminescence, dose retest, confirmation (AID 435004); assay type: functional;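 further: stress induced by proteasome inhibitor MG132 added 30 min after compound; luciferase reporter driven by HSF1 response element in NIH3T3 cells; actives raise luminescence as potentiators of the MG132 stress response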
[18] = molecular target: Neurotensin receptor type 1 (Homo sapiens, UniProt P30989); assay type: functional;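 further: Image-based confirmatory dose-response assay measuring agonist activity at NTR1; NTR1-expressing U2OS osteosarcoma cells imaged for beta-arrestin GFP spot formation; agonist potency where compounds increase beta-arrestin recruitment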
Chain of Neurotensin receptor type 1 (P30989 whole entry): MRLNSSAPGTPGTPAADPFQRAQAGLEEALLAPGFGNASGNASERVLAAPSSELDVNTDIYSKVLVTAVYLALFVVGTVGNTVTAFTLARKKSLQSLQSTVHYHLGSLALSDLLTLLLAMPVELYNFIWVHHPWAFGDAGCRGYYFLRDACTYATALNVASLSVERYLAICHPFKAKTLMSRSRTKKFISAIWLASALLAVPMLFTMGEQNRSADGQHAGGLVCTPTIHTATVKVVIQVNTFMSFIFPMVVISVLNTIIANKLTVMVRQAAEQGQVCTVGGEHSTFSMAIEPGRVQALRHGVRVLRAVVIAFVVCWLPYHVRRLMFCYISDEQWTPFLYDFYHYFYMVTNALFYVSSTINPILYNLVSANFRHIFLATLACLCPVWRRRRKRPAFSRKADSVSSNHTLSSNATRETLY

[19] = molecular target: G2/mitotic-specific cyclin-B1 (Homo sapiens, UniProt P14635); test: HeLa cell cycle G2/M accumulation – FACS, mechanism study for Wee1 degradation inhibitor project, late-stage follow-up, panel member Cyclin B Degradation (AID 2088)
Wee1-like protein kinase = Wee1-like protein kinase (Homo sapiens, UniProt P30291); test: HeLa cell cycle G2/M accumulation – FACS, mechanism study for Wee1 degradation inhibitor project, late-stage follow-up, panel member Wee1 Degradation (AID 2088)
Chain of Wee1-like protein kinase (P30291 whole entry): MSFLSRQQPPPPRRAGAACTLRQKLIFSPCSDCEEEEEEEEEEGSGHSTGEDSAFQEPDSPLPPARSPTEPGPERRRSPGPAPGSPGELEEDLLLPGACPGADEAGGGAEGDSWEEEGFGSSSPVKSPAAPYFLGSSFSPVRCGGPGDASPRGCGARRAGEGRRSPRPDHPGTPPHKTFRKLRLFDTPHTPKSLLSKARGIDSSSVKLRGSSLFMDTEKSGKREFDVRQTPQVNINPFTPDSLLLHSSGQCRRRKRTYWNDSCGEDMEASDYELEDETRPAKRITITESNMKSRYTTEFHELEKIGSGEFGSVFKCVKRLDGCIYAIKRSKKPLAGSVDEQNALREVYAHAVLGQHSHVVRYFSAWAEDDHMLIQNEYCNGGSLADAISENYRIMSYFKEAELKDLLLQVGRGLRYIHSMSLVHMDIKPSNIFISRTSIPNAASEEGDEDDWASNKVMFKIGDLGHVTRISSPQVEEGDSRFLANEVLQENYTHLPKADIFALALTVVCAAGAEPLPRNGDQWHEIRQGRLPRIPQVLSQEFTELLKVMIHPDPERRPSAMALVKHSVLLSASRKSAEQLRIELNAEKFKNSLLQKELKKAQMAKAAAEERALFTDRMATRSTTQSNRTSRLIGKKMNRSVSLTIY

Chain of Cyclin-dependent kinase 5/CDK5 activator 1 (Q00535 whole entry): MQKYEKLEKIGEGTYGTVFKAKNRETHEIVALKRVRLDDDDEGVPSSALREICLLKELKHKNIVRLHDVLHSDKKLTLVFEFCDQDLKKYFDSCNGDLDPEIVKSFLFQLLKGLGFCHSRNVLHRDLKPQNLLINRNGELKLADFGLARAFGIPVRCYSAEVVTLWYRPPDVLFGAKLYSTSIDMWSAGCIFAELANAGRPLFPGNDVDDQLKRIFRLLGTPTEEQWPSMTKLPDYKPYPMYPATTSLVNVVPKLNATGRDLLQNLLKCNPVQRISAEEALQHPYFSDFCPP
Chain of Cyclin-dependent kinase 5/CDK5 activator 1 (Q15078 whole entry, further chain): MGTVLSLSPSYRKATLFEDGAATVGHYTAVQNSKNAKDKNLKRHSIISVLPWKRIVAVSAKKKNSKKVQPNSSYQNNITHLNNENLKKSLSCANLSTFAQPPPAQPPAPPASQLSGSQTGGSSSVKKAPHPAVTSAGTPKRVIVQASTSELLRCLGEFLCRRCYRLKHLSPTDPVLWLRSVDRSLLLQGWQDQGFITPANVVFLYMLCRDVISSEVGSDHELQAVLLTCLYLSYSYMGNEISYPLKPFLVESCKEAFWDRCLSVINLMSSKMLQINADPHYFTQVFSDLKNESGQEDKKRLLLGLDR

SMILES: COc1ccc(C(=O)NNC(=O)c2ccccn2)cc1
AC50 [1]: 8.77 µM (active) | EC50 [2]: 0.98 µM (active) | IC50 [3]: > 80 µM (inactive) | AC50 [4]: 15.7 µM (active) | AC50 [5]: 14.2 µM (active) | EC50 [6]: 0.429 µM (active) | AC50 (Paired box protein Pax-8): 7.51 µM (active) | EC50 [7]: 1.11 µM (active)

SMILES: Cc1nnc(NC(=O)CSc2ccc(-c3ccco3)nn2)s1
IC50 [8]: 6.17 µM (active) | IC50 [9]: 64.1 µM (active)

SMILES: O=C(Nc1cccc(F)c1)Nc1cncc(F)c1
EC50 [12]: 6.32 µM (active)

SMILES: COC(=O)c1cnn(-c2ccc(F)cc2F)c1/C=N/NC(N)=S
IC50 [14]: > 32 µM (inactive) | EC50 [2]: > 112 µM (not active) | EC50 [6]: > 112 µM (not active) | IC50 [15]: > 32 µM (inactive)

SMILES: CC(C)c1cc(C(C)C)c(S(=O)(=O)n2cccc2/C=C(\C#N)S(C)(=O)=O)c(C(C)C)c1
IC50 [16]: > 20 µM (inactive)

SMILES: Cc1ccc(OCC(=O)Nc2cc(C)nn2-c2nc(C)cc(O)n2)cc1
EC50 [19]: > 49.7 µM (inactive) | EC50 (Wee1-like protein kinase): > 16.6 µM (active)

More lines, now with the values ahead:

IC50 [10]: 3.1 µM (active) | IC50 [11]: 5.4 µM (active)
SMILES: COc1nn(-c2cccc(C)c2)c(=O)c(Cl)c1Cl

IC50 [13]: > 56.8 µM (inactive)
SMILES: O=C(c1cc(-c2ccco2)nc2ccccc12)N1CCC(N2CCCC2)CC1

EC50 [17]: 20.7 µM (active) | EC50 [18]: 33.9 µM (inactive)
SMILES: CC1(C)CC(=O)C(=Cc2cn(-c3ccccc3)nc2-c2ccccc2)C(=O)C1
